Measurements reported in US11332468B2, “Azaindole derivatives as Rho-kinase inhibitors” (CHIESI FARMACEUTICI S.p.A., priority 2017, dated 2022).

Columns and labels:
Rho kinase 2 (ROCK2) = Rho kinase 2 (ROCK2) (Homo sapiens, UniProt O75116); assay: In vitro Rho kinase inhibitory activity assay (ADP-Glo), ROCK2; format: biochemical; details: Ki by Cheng-Prusoff from IC50; 10 μM ATP; range of activity
Description: (§1) The effectiveness of compounds of the invention to inhibit Rho kinase activity can be determined in a […] assay containing 40 mM Tris pH7.5, 20 mM MgC2 0.1 mg/ml BSA, 50 μM DTT and 2.5 μM peptide substrate (Myelin Basic Protein) using an ADP-Glo kit (Promega). Compounds were dissolved in DMSO such that the final concentration of DMSO was 1% in the assay. All reactions/incubations are performed at 25° C. Compound (2 ul) and either Rho kinase 1 or 2 (4 μl) were mixed and incubated for 30 mins. Reactions were initiated by addition of ATP (4 μl) such that the final concentration of ATP in the assay was 10 μM. After a 1 hour incubation 10 μl of ADP-Glo Reagent was added and after a further 45 minute incubation 20 ul of Kinase Detection Buffer was added and the mixture incubated for a further 30 minutes. The luminescent signal was measured on a luminometer. […] Compounds were tested in dose-response format and the inhibition of kinase activity was calculated at each concentration of compound. To determine the IC50 (concentration of compound required to inhibit 50% of the enzyme activity) data were fit to a plot of % inhibition vs Log10 compound concentration using a sigmoidal fit with a variable slope and fixing the maximum to 100% and the minimum to 0%. To determine the Ki values the Cheng-Prusoff equation was utilized (Ki=IC50/(1+[S]/Km)

Rho kinase 1 (ROCK1) = Rho kinase 1 (ROCK1) (Homo sapiens, UniProt Q13464); assay: In vitro Rho kinase inhibitory activity assay (ADP-Glo), ROCK1; format: biochemical; details: Ki by Cheng-Prusoff from IC50; 10 μM ATP; range of activity
Sequence of Rho kinase 1 (ROCK1) (Q13464 whole entry): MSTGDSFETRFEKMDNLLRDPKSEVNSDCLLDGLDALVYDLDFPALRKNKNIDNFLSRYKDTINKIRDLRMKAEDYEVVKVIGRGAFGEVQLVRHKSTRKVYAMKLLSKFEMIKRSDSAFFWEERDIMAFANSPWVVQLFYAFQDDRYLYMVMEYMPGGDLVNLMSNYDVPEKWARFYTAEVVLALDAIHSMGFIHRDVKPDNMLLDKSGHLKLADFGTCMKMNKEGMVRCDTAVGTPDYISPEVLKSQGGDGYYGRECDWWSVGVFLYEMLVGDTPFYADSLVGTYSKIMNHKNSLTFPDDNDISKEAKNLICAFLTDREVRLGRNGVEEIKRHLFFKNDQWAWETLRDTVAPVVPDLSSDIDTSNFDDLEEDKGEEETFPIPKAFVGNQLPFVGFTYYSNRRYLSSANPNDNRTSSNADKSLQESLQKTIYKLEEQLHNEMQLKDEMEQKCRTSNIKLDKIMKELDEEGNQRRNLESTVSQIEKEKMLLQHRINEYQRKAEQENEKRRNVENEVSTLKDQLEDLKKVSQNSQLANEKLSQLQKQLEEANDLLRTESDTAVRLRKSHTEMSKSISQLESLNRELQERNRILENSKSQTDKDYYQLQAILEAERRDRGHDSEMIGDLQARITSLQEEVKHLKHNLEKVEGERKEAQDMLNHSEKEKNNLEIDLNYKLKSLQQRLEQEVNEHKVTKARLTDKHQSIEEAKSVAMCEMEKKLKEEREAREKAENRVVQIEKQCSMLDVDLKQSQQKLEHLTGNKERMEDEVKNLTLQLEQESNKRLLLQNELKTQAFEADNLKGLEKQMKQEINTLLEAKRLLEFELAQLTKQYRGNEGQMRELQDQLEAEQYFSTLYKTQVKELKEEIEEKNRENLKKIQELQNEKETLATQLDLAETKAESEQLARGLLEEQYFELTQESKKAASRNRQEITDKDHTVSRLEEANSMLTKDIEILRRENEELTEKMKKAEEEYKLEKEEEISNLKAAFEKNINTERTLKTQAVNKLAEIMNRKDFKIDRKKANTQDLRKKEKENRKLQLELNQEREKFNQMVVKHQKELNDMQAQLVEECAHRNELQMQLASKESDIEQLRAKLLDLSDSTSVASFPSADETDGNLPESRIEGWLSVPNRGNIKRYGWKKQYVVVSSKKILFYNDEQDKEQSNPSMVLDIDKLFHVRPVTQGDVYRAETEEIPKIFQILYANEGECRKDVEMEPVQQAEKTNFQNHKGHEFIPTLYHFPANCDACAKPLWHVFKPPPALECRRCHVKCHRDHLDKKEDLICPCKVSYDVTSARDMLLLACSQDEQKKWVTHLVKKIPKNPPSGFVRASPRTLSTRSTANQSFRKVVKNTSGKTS
Description: as §1

Sequence of Rho kinase 2 (ROCK2) (O75116 whole entry): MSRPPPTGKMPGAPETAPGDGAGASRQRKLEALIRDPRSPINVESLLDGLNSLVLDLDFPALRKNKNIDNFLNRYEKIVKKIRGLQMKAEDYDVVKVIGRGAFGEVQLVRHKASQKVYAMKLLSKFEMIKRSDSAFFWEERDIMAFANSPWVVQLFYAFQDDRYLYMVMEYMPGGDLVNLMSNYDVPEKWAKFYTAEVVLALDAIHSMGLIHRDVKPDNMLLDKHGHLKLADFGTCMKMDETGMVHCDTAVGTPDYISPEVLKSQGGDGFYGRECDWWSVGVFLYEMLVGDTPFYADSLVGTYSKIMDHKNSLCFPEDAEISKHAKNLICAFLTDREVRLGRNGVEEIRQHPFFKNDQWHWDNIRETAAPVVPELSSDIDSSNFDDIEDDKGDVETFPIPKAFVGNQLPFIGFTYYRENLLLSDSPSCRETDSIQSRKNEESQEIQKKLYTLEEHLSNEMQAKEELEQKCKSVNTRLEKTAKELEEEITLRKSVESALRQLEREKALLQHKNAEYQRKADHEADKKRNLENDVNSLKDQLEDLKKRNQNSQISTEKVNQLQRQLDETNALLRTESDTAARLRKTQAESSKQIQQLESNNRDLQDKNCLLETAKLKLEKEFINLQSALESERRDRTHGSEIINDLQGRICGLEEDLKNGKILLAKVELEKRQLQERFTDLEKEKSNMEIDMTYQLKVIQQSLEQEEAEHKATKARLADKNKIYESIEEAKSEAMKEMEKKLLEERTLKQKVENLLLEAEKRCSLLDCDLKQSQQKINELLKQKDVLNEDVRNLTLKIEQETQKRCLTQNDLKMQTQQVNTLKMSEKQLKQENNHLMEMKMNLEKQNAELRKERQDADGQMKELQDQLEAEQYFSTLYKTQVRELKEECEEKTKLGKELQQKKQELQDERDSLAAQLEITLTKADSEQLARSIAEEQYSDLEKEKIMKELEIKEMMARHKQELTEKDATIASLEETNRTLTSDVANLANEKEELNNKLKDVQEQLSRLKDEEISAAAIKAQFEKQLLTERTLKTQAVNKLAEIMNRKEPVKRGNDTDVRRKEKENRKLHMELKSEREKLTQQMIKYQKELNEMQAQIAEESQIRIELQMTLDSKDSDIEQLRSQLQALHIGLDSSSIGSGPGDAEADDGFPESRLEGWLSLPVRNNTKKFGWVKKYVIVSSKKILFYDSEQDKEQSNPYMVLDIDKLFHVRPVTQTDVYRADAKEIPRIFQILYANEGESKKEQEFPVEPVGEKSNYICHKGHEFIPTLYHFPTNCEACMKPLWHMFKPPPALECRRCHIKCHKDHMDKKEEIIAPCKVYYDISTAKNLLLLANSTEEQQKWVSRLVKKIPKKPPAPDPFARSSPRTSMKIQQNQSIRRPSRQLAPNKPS

Compound	Ki (Rho kinase 2 (ROCK2)) [nM]	Ki (Rho kinase 1 (ROCK1)) [nM]
Cc1c[nH]c2nccc(Oc3ccc(C(N)CO)cc3)c12 (stereo not shown) [Example 38, 2-amino-2-(4-((3-methyl-1H-pyrrolo[2,3-b]pyridin-4-yl)oxy)phenyl)ethanol]	< 5	5 to 50
Cc1c[nH]c2nccc(Oc3ccc4c(c3)CN[C@@H](CO)C4)c12 [Example 39, (R)-(7-((3-Methyl-1H-pyrrolo[2,3-b]pyridin-4-yl)oxy)-1,2,3,4-tetrahydroisoquinolin-3-yl)methanol]	< 5	< 5
